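Following 48 hours of exposure in 96-well plates, responses at five concentrations were used to interpolate endpoints linearly. GI50 is the concentration that inhibits growth by half.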 Active and inactive are the calls of the source. No stated cut-off is given here; in the data, active = GI50 up to about 1.1 µM and inactive = higher.
What was measured:
Test in all cases: NCI tumour cell line growth inhibition, 48 h
SW-620 = tested on: SW-620
SK-MEL-28 = tested on: SK-MEL-28
Malme-3M = tested on: Malme-3M
HCT-15 = tested on: HCT-15
SNB-19 = tested on: SNB-19
MOLT-4 = tested on: MOLT-4
M14 = tested on: M14
U-251 = tested on: U-251
OVCAR-5 = tested on: OVCAR-5
K562 = tested on: K562
UACC-257 = tested on: UACC-257
IGROV-1 = tested on: IGROV-1
SF-295 = tested on: SF-295
HT-29 = tested on: HT-29
SK-MEL-2 = tested on: SK-MEL-2
CCRF-CEM = tested on: CCRF-CEM
HCT-116 = tested on: HCT-116
TK-10 = tested on: TK-10
LOX IMVI = tested on: LOX IMVI

Compound	GI50 (SW-620)	GI50 (SK-MEL-28)	GI50 (Malme-3M)	GI50 (HCT-15) [µM]	GI50 (SNB-19)	GI50 (MOLT-4)	GI50 (M14)	GI50 (U-251)	GI50 (OVCAR-5)	GI50 (K562)	GI50 (UACC-257)	GI50 (IGROV-1)	GI50 (SF-295)	GI50 (HT-29)	GI50 (SK-MEL-2)	GI50 (CCRF-CEM)	GI50 (HCT-116)	GI50 (TK-10)	GI50 (LOX IMVI)
Cc1ccc(C(=O)Cc2nc3ncccc3[nH]c2=O)cc1	80 µM (inactive)	32.8 µM (inactive)	23.2 µM (inactive)	41.2	6.15 µM (inactive)	70.3 µM (inactive)	82.8 µM (inactive)	22.5 µM (inactive)	81.5 µM (inactive)	> 100 µM (inactive)	40.6 µM (inactive)	37.2 µM (inactive)	45.4 µM (inactive)	59.6 µM (inactive)	> 100 µM (inactive)	> 100 µM (inactive)	30.5 µM (inactive)	29.9 µM (inactive)	
CC(=O)Nc1ncc2c(n1)-c1ccccc1OC2	> 100 µM (inactive)			> 100	> 100 µM (inactive)	> 100 µM (inactive)	> 100 µM (inactive)	> 100 µM (inactive)	> 100 µM (inactive)		> 100 µM (inactive)	> 100 µM (inactive)	> 100 µM (inactive)	> 100 µM (inactive)	> 100 µM (inactive)	> 100 µM (inactive)	> 100 µM (inactive)	> 100 µM (inactive)	> 100 µM (inactive)
CCOP(=O)(OCC)/C(C#N)=C/c1cnc(-c2ccccc2)[nH]1	> 100 µM (inactive)	> 100 µM (inactive)	> 100 µM (inactive)	> 100	> 100 µM (inactive)	> 100 µM (inactive)	> 100 µM (inactive)	> 100 µM (inactive)	> 100 µM (inactive)	> 100 µM (inactive)	> 100 µM (inactive)	> 100 µM (inactive)	> 100 µM (inactive)	> 100 µM (inactive)	> 100 µM (inactive)	> 100 µM (inactive)	> 100 µM (inactive)		> 100 µM (inactive)
CC1(C)COC(c2ccccc2-c2ccccc2)=N1	> 100 µM (inactive)	> 100 µM (inactive)	> 100 µM (inactive)	> 100	71.6 µM (inactive)	> 100 µM (inactive)	> 100 µM (inactive)	89.5 µM (inactive)	> 100 µM (inactive)	90.2 µM (inactive)	66.1 µM (inactive)	67.8 µM (inactive)	53.7 µM (inactive)	83 µM (inactive)	> 100 µM (inactive)	> 100 µM (inactive)	> 100 µM (inactive)		
CCN(CC)c1ccc2cc(C(=O)Nc3ccccn3)c(=N)oc2c1	> 100 µM (inactive)	> 100 µM (inactive)	60.3 µM (inactive)	> 100	19.1 µM (inactive)	> 100 µM (inactive)	> 100 µM (inactive)	37.9 µM (inactive)	80.2 µM (inactive)	> 100 µM (inactive)	> 100 µM (inactive)	> 100 µM (inactive)		32.2 µM (inactive)	25.5 µM (inactive)	> 100 µM (inactive)	55.5 µM (inactive)		71.1 µM (inactive)
CCCc1cc(=O)oc2c3c(c4c(c12)OC(C)(C)CC4)O[C@H](C)[C@@H](C)[C@H]3O	17 µM (inactive)		21.9 µM (inactive)	13.4	16.6 µM (inactive)	12.4 µM (inactive)	16.1 µM (inactive)	13.9 µM (inactive)	16.7 µM (inactive)	2.52 µM (inactive)	14.8 µM (inactive)	15.6 µM (inactive)	16.2 µM (inactive)	10 µM (inactive)	24.7 µM (inactive)	14.1 µM (inactive)	15.5 µM (inactive)		14.8 µM (inactive)
CC(C)(C)C1=C(Br)C(OC(=O)C(F)(F)F)(C(C)(C)C)OP1(=O)c1ccccc1 (configuration not stated)		> 100 µM (inactive)	65 µM (inactive)	31.5	57.4 µM (inactive)		36.1 µM (inactive)	35.6 µM (inactive)	> 100 µM (inactive)	25.5 µM (inactive)	72.9 µM (inactive)	35.7 µM (inactive)	35.3 µM (inactive)	37 µM (inactive)	29.2 µM (inactive)		33 µM (inactive)	79.3 µM (inactive)	45.8 µM (inactive)
Cc1ccccc1N1C(=O)/C(=C/c2ccc(N(CCC#N)CCC#N)cc2)N=C1c1cc([N+](=O)[O-])ccc1Cl	> 100 µM (inactive)	> 100 µM (inactive)	> 100 µM (inactive)	> 100	> 100 µM (inactive)	25.5 µM (inactive)	> 100 µM (inactive)	36 µM (inactive)	42.1 µM (inactive)	35.8 µM (inactive)	> 100 µM (inactive)	> 100 µM (inactive)	31 µM (inactive)	> 100 µM (inactive)	> 100 µM (inactive)	48.6 µM (inactive)			
CCOC(=O)NC(=O)c1cn(CCN2CCN(C(=O)NCCCCCCNC(=O)N3CCN(CCn4cc(C(=O)NC(=O)OCC)c(=O)n(CCN(CC)CC)c4=O)CC3)CC2)c(=O)n(CCC(CC)CC)c1=O	> 100 µM (inactive)	> 100 µM (inactive)	> 100 µM (inactive)	> 100	> 100 µM (inactive)		> 100 µM (inactive)	> 100 µM (inactive)	> 100 µM (inactive)	> 100 µM (inactive)	> 100 µM (inactive)	> 100 µM (inactive)	> 100 µM (inactive)	> 100 µM (inactive)	> 100 µM (inactive)		> 100 µM (inactive)	> 100 µM (inactive)	> 100 µM (inactive)
CC1(C)CC[C@]2(C(=O)O)[C@H](O)C[C@]3(C)C(=CC[C@@H]4[C@@]5(C)CC[C@H](OC6OC(C(=O)O)C(O)C(O)C6O)C(C)(C)[C@@H]5CC[C@]43C)[C@@H]2C1 (some centres not stated)	> 100 µM (inactive)	18.3 µM (inactive)	> 100 µM (inactive)	58.2	52.7 µM (inactive)	> 100 µM (inactive)	> 100 µM (inactive)	41 µM (inactive)	> 100 µM (inactive)	95.9 µM (inactive)	> 100 µM (inactive)	> 100 µM (inactive)	46.1 µM (inactive)	> 100 µM (inactive)	> 100 µM (inactive)	36.9 µM (inactive)	> 100 µM (inactive)		64.3 µM (inactive)
O=C(O)CC1OCC=C2C[N+]3([O-])CCC45c6ccccc6NC4C1C2CC53 (configuration not stated)	> 100 µM (inactive)	> 100 µM (inactive)	> 100 µM (inactive)	> 100	> 100 µM (inactive)	> 100 µM (inactive)	> 100 µM (inactive)	> 100 µM (inactive)	> 100 µM (inactive)	> 100 µM (inactive)	> 100 µM (inactive)	> 100 µM (inactive)	> 100 µM (inactive)	> 100 µM (inactive)	17.7 µM (inactive)		> 100 µM (inactive)	> 100 µM (inactive)	> 100 µM (inactive)
O=C(CC(C(=O)c1ccc(F)cc1)c1ccsc1)c1cccs1 (configuration not stated)	> 100 µM (inactive)	> 100 µM (inactive)	36 µM (inactive)	86.9	> 100 µM (inactive)	29.6 µM (inactive)	> 100 µM (inactive)	> 100 µM (inactive)	> 100 µM (inactive)	> 100 µM (inactive)	70.3 µM (inactive)	> 100 µM (inactive)	67.6 µM (inactive)	59.2 µM (inactive)	> 100 µM (inactive)	68.9 µM (inactive)	60.5 µM (inactive)	> 100 µM (inactive)	
ClC(Cl)(Cl)C1CCOC1n1nnc2ccccc21 (configuration not stated)			> 100 µM (inactive)			21.9 µM (inactive)	> 100 µM (inactive)	90.4 µM (inactive)	> 100 µM (inactive)	24.1 µM (inactive)	> 100 µM (inactive)	> 100 µM (inactive)	> 100 µM (inactive)	73.5 µM (inactive)	> 100 µM (inactive)	44.1 µM (inactive)	92.9 µM (inactive)	> 100 µM (inactive)	
CC(C)c1cc(C(C)C)c(S(=O)(=O)N/N=C2\CC3CCC2(C)C3(C)C)c(C(C)C)c1 (configuration not stated)	57.1 µM (inactive)	31.8 µM (inactive)	25.5 µM (inactive)	46	27.5 µM (inactive)	6.68 µM (inactive)	51.6 µM (inactive)	23.3 µM (inactive)	48 µM (inactive)	8.53 µM (inactive)	4.84 µM (inactive)	27.3 µM (inactive)	10.4 µM (inactive)	14.1 µM (inactive)	18.9 µM (inactive)	4.69 µM (inactive)	17.8 µM (inactive)	38.8 µM (inactive)	
C=C(C)C1CC/C(C)=C/CC[C@]2(C)O[C@H]2CC/C(COC(C)=O)=C\[C@@H]1O (some centres not stated)	> 50 µM (inactive)	> 50 µM (inactive)		> 50	> 50 µM (inactive)	16 µM (inactive)		> 50 µM (inactive)	> 50 µM (inactive)	11.1 µM (inactive)	> 50 µM (inactive)	> 50 µM (inactive)	30.7 µM (inactive)	> 50 µM (inactive)	> 50 µM (inactive)	16.3 µM (inactive)	> 50 µM (inactive)	> 50 µM (inactive)	
O=C(/C=C/c1ccc(O)c(O)c1)OCC(OC(=O)/C=C/c1ccc(O)c(O)c1)C(=O)O (configuration not stated)	50.8 µM (inactive)	> 100 µM (inactive)		47.6	> 100 µM (inactive)	63.4 µM (inactive)	> 100 µM (inactive)	63.7 µM (inactive)	> 100 µM (inactive)	> 100 µM (inactive)	> 100 µM (inactive)	80.9 µM (inactive)	> 100 µM (inactive)	> 100 µM (inactive)	> 100 µM (inactive)	48 µM (inactive)	81.7 µM (inactive)	> 100 µM (inactive)	92.5 µM (inactive)

Source: ChEMBL document CHEMBL1201862, “PubChem BioAssay data set” (2004)
